# In patent US9447140B2, “Cholest-4-en-3-one oxime derivatives, pharmaceutical compositions containing same, and preparation method” (TROPHOS, priority 2008, dated 2016):
# Tested on: rat motor neurons
# Assay: in vitro model of trophic deprivation of rat motor neurons (survival, calcein fluorescence after 3 days)
# Format: cell-based
# Conditions: Concentration 1 μM, E14 rat motor neurons, Neurobasal medium without neurotrophic factors
# Source text: Reference can usefully be made to the applicant's patent application WO 0142784 on the culturing of motor neurons of the spinal cord.
# The spinal cord of E14 rat embryos is dissected and the ventral part is dissociated by trituration after trypsination.
# The motor neurons are separated from the other spinal cells by a known method (Camu et al., 1993, Purification of spinal motoneurons from chicken and rat embryos by immunopanning. In “Immunoselection Strategies for Neural cell culture”, Neuroprotocols: A companion to Methods in Neurosciences 2, 191-199; Henderson et al., 1993, Neutrophins promote motor neuron survival and are present in embryonic limb bud. Nature 363 (6426):266-70).
# The cells are centrifuged on a density gradient. The fraction of large cells (the least dense) is enriched with motor neurons. The cells in this fraction are incubated with an anti-p75 antibody, a surface antigen present on the motor neurons.
# Secondary antibodies coupled to magnetic beads are added and the mixture of cells is passed through a column in a magnet (Arce et al., 1999 Cardiotrophin-1 requires LIFRbeta to promote survival of mouse motoneurons purified by a novel technique. J. Neurosci Res 55 (1): 119-26). Only the motor neurons are retained: their purity is of the order of 90%.
# The motor neurons are seeded at a low density in culture wells on a polyornithine-laminin substrate in a neurobasal medium (GIBCO) supplemented according to Raoul et al., 1999, Programmed cell death of embryonic motoneurons triggered through the Fas death receptor. J Cell Biol 147 (5):1049-62.
# Negative controls (absence of trophic factors) and positive controls (in the presence of BDNF (Brain-Derived Neurotrophic Factor) at 1 ng/ml, GDNF (Glial-Derived Neurotrophic Factor) at 1 ng/ml and CNTF (Ciliary Neurotrophic Factor) at 10 ng/ml, marketed by the American company PEPROTECH, Inc. and the company Sigma-Aldrich, are included in each series.
# The compounds to be tested are added 60 minutes after seeding and the cultures are maintained at 37° C. under 5% CO2 for 3 days.
# The motor neurons have a spontaneous tendency to die in the absence of neurotrophic factors (Pettmann and Henderson, 1998, Neuronal cell death. Neuron 20 (4):633-47). After 3 days, the survival is evaluated by a fluorescence measurement after incubation of the cells in the presence of calcein which becomes fluorescent in living cells.
# After 3 days in culture at 37° C., under 5% CO2 and under saturation humidity, up to 50% of the motor neurons initially seeded survive in the medium supplemented with neurotrophic factors, whilst less than 15% of the motor neurons survive in culture medium without added neurotrophic factors.
# The neuroprotective activity of the compounds to be tested was evaluated by their ability to prevent the death of the motor neurons when they are added to the Neurobasal medium (GIBCO) in comparison with the survival of the motor neurons in medium with added neurotrophic factors.
# This survival rate is expressed by the number of living cells after treatment with the compound to be tested compared with the survival induced by the neurotrophic factors. This ratio can therefore represent the survival percentage due to the compound tested compared with the survival induced by the neurotrophic factors. If the ratio is greater than 0, the effect of the compounds on the survival of the motor neurons is positive.
row,Compound,Ratio (survival of motor neurons with compound compared with the survival induced by the neurotrophic factors)
1,"CC(CCC[C@@H](C)[C@H]1CC[C@H]2[C@@H]3CCC4=CC(=NO)CC[C@]4(C)[C@H]3CC[C@]12C)N(C)c1ccc([N+](=O)[O-])c2nonc12 (stereo partly drawn) [Example 2h, 3-oxyimino-25-[methyl(7-nitro-2,1,3-benzoxadiazol-4-yl)amino]-27-norcholest-4-ene]",0.66
2,"CC(C)CCC[C@@H](C)[C@H]1CC[C@H]2[C@@H]3CCC4=CC(=NO)CC[C@]4(COC(=O)CCCCC4SCC5NC(=O)NC54)[C@H]3CC[C@]12C (stereo partly drawn) [Example 2l, 3-oxyimino-19-biotinyloxy-cholest-4-ene]",0.32
3,"CC(C)CCC[C@@H](C)[C@H]1CC[C@H]2[C@@H]3CCC4=CC(=NO)C(C)C[C@]4(C)[C@H]3CC[C@]12C (stereo partly drawn) [Example 2m, 3-oxyimino-2-methyl-cholest-4-ene]",0.42
4,"COC1=C2CC[C@H]3[C@@H]4CC[C@H]([C@H](C)CCCC(C)C)[C@@]4(C)CC[C@@H]3[C@@]2(C)CCC1=NO [Example 2n, 3-oxyimino-4-methoxy-cholest-4-ene]",0.34

# Same assay, conditions: Concentration 3 μM, E14 rat motor neurons, Neurobasal medium without neurotrophic factors
row,Compound,Ratio (survival of motor neurons with compound compared with the survival induced by the neurotrophic factors)
1,"CC(C)CCC[C@@H](C)[C@H]1CCC2C3CCC4=C(F)/C(=N/O)CC[C@]4(C)C3CC[C@@]21C (stereo partly drawn) [Example 2b, 3-oxyimino-4-fluoro-cholest-4-ene]",0.73
2,"CC(C)CCC[C@@H](C)[C@H]1CCC2C3C[C@@H](F)C4=CC(=NO)CC[C@]4(C)C3CC[C@@]21C (stereo partly drawn) [Example 2c, 3-oxyimino-6β-fluoro-cholest-4-ene]",0.50
3,"CC(C)CCC[C@@H](C)[C@H]1CCC2C3CCC4=C/C(=N/O)C(F)(F)C[C@]4(C)C3CC[C@@]21C (stereo partly drawn) [Example 2d, 3-oxyimino-2,2-difluoro-cholest-4-ene]",0.50
4,"CC(C)CCC[C@@H](C)[C@H]1CC[C@H]2[C@@H]3CC(F)C4=CC(=NO)C(F)C[C@]4(C)[C@H]3CC[C@]12C (stereo partly drawn) [Example 2e, 3-oxyimino-2,6-difluoro-cholest-4-ene]",0.37
5,"CC(C)CCC[C@@H](C)[C@H]1CC[C@H]2[C@@H]3CCC4=CC(=NO)[C@H](F)C[C@]4(C)[C@H]3CC[C@]12C [Example 2f, 3-oxyimino-2α-fluoro-cholest-4-ene]",0.27
6,"CC(CCCC(C)N(C)C(=O)CCCCC1SCC2NC(=O)NC21)C1CCC2C3CCC4=CC(=NO)CCC4(C)C3CCC12C (stereo not drawn) [Example 2i, 3-oxyimino-25-((N-(+)-biotinoyl-N-methyl)amino)-27-norcholest-4-ene]",0.42
7,"CC(C)CCC[C@@H](C)[C@H]1CC[C@H]2[C@@H]3CCC4=CC(=NO)CC[C@]4(CO)[C@H]3CC[C@]12C [Example 2k, 3-oxyimino-19-hydroxy-cholest-4-ene]",0.49

# Tested on: not listed separately
# Assay: exposure after administration by oral route
# Format: in vivo
# Conditions: qualitative
row,Compound,exposure when administered by oral route
1,"CC(C)CCC[C@@H](C)[C@H]1CCC2C3CCC4=C(F)/C(=N/O)CC[C@]4(C)C3CC[C@@]21C (stereo partly drawn) [Example 2b, 3-oxyimino-4-fluoro-cholest-4-ene]",improved exposure
